According to US8993562B2, “Imidazo[1,2-b]pyridazines, processes, uses, intermediates and compositions” (Ferrer Internacional, S.A., priority 2006, dated 2015):

Columns and labels:
male CD1 mice [1] = test: In vivo predictive anesthetic test (loss of righting reflex)
Description: c) In Vivo Determination of Predictive Anesthetic Activity
The in vivo effects of these compounds were assessed by a predictive anesthetic test in mice as the loss of righting reflex (Kralic et al., Neuropharmacology, 43(4), 685-689 2002; Belelli et al., Neuropharmacology, 45, 57-71, 2003).
Groups of 5-8 male CD1 mice, weighing 22-26 g at the time of test, were used. The test compounds were administered at 98.0 μmol/kg by mean of intraperitoneal injection. Compounds were suspended in 0.25% agar with one drop of Tween in a volume of 10 mL/kg.

male CD1 mice [2] = test: In vivo predictive sedation-hypnosis test (traveled distance); settings: Mus musculus, ip, 0.5 h, traveled distance over 30 min versus control, read-out: % inhib motor activity; for inhibition in vivo at 0.98 µmol/kg: 0.98 μmol/kg intraperitoneal; for inhibition in vivo at 98 µmol/kg: 98.0 μmol/kg intraperitoneal
Description: b) In Vivo Determination of Predictive Sedative-hypnotic Action
The in vivo effects of these compounds were assessed by a predictive sedation-hypnosis test in mice (D. J. Sanger et al., Eur. J. Pharmacol., 313, 35-42, 1996; and G. Griebel et al., Psychopharmacology, 146, 205-213, 1999).
Groups of 5-8 male CD1 mice, weighing 22-26 g at the time of test, were used. […] Compounds were suspended in 0.25% agar with one drop of Tween in a volume of 10 mL/kg. Control animals were given the vehicle alone. Using a Smart System (Panlab, S. L., Spain) the traveled distance in cm is recorded for each mouse at 5-minutes intervals during a period of 30 minutes after dosing. The inhibition percentage of traveled distance of treated animals versus control animals (the first 5 minutes were discarded) was calculated.

α1-GABAA receptor = test: Ligand-binding assay, radiolabeled flumazenil competition, cerebellum membranes; settings: rat cerebellum membranes, radiolabeled flumazenil 1 nM
Description: (§1) a) Ligand-binding Assays. Determination of the Affinity of Test Compounds for α1- and α2-GABAA Receptor
(§2) Male Sprague-Dawley rats weighing 200-250 g at the time of experiment were used. After decapitation of the animal, the cerebellum (tissue that mostly contains α1-GABAA receptor) and spinal cord (tissue that mostly contains α2-GABAA receptor) were removed. The membranes were prepared according to the method by J. Lameh et al. (Prog. Neuro-Psychopharmacol. Biol. Psychiatry, 24, 979-991, 2000) and H. Noguchi et al. (Eur J Pharm, 434, 21-28, 2002) with slight modifications. Once the tissues weighed, they were suspended in 50 mM Tris.HCl (pH 7.4), 1:40 (v/v), or sucrose 0.32 M in the case of spinal cord, homogenized and then centrifuged at 20000 g for 10 minutes at 7° C. The resulting pellet was resuspended under the same conditions and centrifuged again. The pellet was finally resuspended on a minimum volume and kept at −80° C. overnight. A slight modification was used in the case of spinal cord at the first centrifugation step. Centrifugation speed was at 1000 g and the supernatant was collected instead of discarded as in cerebellum. Then, supernatant was centrifuged at 20000 g and resuspended twice more under the same conditions described above for cerebellum. On the next day, the process was repeated until the final pellet was resuspended at a ratio of 1:10 (v/v) in the case of cerebellum and at a ratio of 1:5 (v/v) in the case of spinal cord.
(§3) Affinity was determined by competitive tests using radiolabeled flumazenil as ligand. The tests were performed according to the methods described by S. Arbilla et al. (Eur. J. Pharmacol., 130, 257-263, 1986); and Y. Wu et al. (Eur. J. Pharmacol., 278, 125-132, 1995) using 96-well microtiter plates. The membranes containing the study receptors, flumazenil (radiolabeling at a final concentration of 1 nM) and ascending concentrations of test compounds (in a total volume of 230 μl in 50 mM [pH 7.4] Tris.HCl buffer) were incubated. Simultaneously, the membranes were only incubated with the radiolabeled flumazenil (total binding, 100%) and in the presence of an elevated concentration of unradiolabeled flumazenil (non-specific binding, % estimation of radiolabeled ligand). The reactions started on adding the radiolabeled ligand followed by incubation for 60 minutes at 4° C. At the end of the incubation period, 200 μl of reaction were transferred to a multiscreen plate (Millipore) and filtered using a vacuum manifold and then washed three times with cold test buffer. The multiscreen plates were equipped with a GF/B filter that retained the membranes containing the receptors and the radiolabeled ligand which had been bound to the receptors. After washing, the plates were left till dry. Once dried, scintillation liquid was added and left under stirring overnight. The next day the plates were counted using a Perkin-Elmer Microbeta scintillation counter.
(§4) For analysis of the results the percentage of specific binding for every concentration of test compound was calculated as follows: specific binding−(X−N/T−N)×100 where, X: amount of bound ligand for every concentration of compound. T: total binding, maximum amount bound to the radiolabeled ligand. N: non-specific binding, amount of radiolabeled ligand bound in a non-specific way irrespective of the receptor used.
(§5) Every concentrations of compound were tested in triplicate and their mean values were used to determine the experimental values of % specific binding versus the concentration of compound. Affinity data are expressed as % inhibition at 10^−5M and 10^−7M concentrations.

α2-GABAA receptor = test: Ligand-binding assay, radiolabeled flumazenil competition, spinal cord membranes; settings: rat spinal cord membranes, radiolabeled flumazenil 1 nM
Description: as §1, §2, §3, §4, §5

GABAA receptor = target: T1, GABAA receptor; test: Comparative assay: IC50 values estimated from Cheng-Prusoff equation; type: binding, rat; settings: compounds of the invention; estimated from Ki by Cheng-Prusoff equation, radioligand 1 nM
T1 construct: IC50; other: compounds of the invention; estimated from Ki by Cheng-Prusoff equation, radioligand 1 nM
Description: All these compounds have in common that at 3-position, the imidazo[1,2-b]pyradizine ring have an acetamide. The rest of compounds disclosed in WO89/01333 are not structurally so related with the compounds of the present invention.
The IC50 values were estimated from Cheng-Prusoff equation (Cheng Y. C. and Prusoff W. H.; Biochem. Pharmacol. 22, 3099-3108, 1973)
[formula] where, Ki is determined for each one of the compounds of the invention as described above (section (a)). [RL*]: radiolabeled ligand concentration (1 nM). Kd: affinity constant (cerebellum 1.34 nM/spinal cord 1.19 nM)

Row | Structure (SMILES) | % of animals with loss of righting reflex (male CD1 mice [1]; 98.0 μmol/kg intraperitoneal) [%] | inhibition in vivo at 0.98 µmol/kg (male CD1 mice [2]) [%] | inhibition in vivo at 98 µmol/kg (male CD1 mice [2]) [%] | % inhib 10^−5 M, affinity for the α1-subunit of the GABAA receptor (α1-GABAA receptor) [%] | % inhib 10^−7 M, affinity for the α1-subunit of the GABAA receptor (α1-GABAA receptor) [%] | % inhib 10^−5 M, affinity for the α2-subunit of the GABAA receptor (α2-GABAA receptor) [%] | % inhib 10^−7 M, affinity for the α2-subunit of the GABAA receptor (α2-GABAA receptor) [%] | IC50 (GABAA receptor) [µM] | % of animals with loss of righting reflex (male CD1 mice [1]; double dose than compounds of the present invention) [%]
1 | CCCN(CCC)C(=O)Cc1c(-c2ccc(C)cc2)nc2ccc(Cl)nn12 [Example 2, 2-(6-Chloro-2-p-tolyl-imidazo[1,2-b]pyridazin-3-yl)-N,N-dipropyl-acetamide] | 90 | 38.4 | 96.7 | – | – | – | – | – | –
2 | CCCCN(CCCC)C(=O)Cc1c(-c2ccc(C)cc2)nc2ccc(Cl)nn12 [Example 3, N,N-Dibutyl-2-(6-chloro-2-p-tolyl-imidazo[1,2-b]pyridazin-3-yl)-acetamide] | 100 | 14.6 | 90.9 | – | – | – | – | – | –
3 | CCN(CC)C(=O)Cc1c(-c2ccc(OC)cc2)nc2ccc(C)nn12 [Example 70, N,N-Diethyl-2-[2-(4-methoxy-phenyl)-6-methyl-imidazo[1,2-b]pyridazin-3-yl]-acetamide] | – | – | 87 | 99.9 | 84.5 | 80.3 | 23.6 | – | –
4 | CCCN(CCC)C(=O)Cc1c(-c2ccc(OC)cc2)nc2ccc(C)nn12 [Example 71, 2-[2-(4-Methoxy-phenyl)-6-methyl-imidazo[1,2-b]pyridazin-3-yl]-N,N-dipropyl-acetamide] | – | – | 96 | 100.2 | 95.0 | 88.5 | 50.6 | – | –
5 | COc1ccc(-c2nc3ccc(C)nn3c2CC(=O)N2CCCCC2)cc1 [Example 73, 2-[2-(4-Methoxy-phenyl)-6-methyl-imidazo[1,2-b]pyridazin-3-yl]-1-piperidin-1-yl-ethanone] | – | – | 94.1 | 99.9 | 76.5 | 77.0 | 20.6 | – | –
6 | CCN(CC)C(=O)Cc1c(-c2ccc(OC)cc2)nc2ccc(OC)nn12 [Example 75, N,N-Diethyl-2-[6-methoxy-2-(4-methoxy-phenyl)-imidazo[1,2-b]pyridazin-3-yl]-acetamide] | – | – | 92.6 | 99.4 | 52.1 | 68.8 | 9.3 | – | –
7 | CCCN(CC1CC1)C(=O)Cc1c(-c2ccc(C)cc2)nc2ccc(C)nn12 [Example 82, N-Cyclopropylmethyl-2-(6-methyl-2-p-tolyl-imidazo[1,2-b]pyridazin-3-yl)-N-propyl-acetamide] | 30 | – | 94.2 | – | – | – | – | – | –
8 | Cc1ccc(-c2nc3ccc(C)nn3c2CC(=O)Nc2nccs2)cc1 [Example 83, 2-(6-Methyl-2-p-tolyl-imidazo[1,2-b]pyridazin-3-yl)-N-thiazol-2-yl-acetamide] | – | – | 88.9 | 99.6 | 97.6 | 93.1 | 57.7 | – | –
9 | Cc1ccc(-c2nc3ccc(C)nn3c2CC(=O)N(C(C)C)C(C)C)cc1 [Example 84, N,N-Diisopropyl-2-(6-methyl-2-p-tolyl-imidazo[1,2-b]pyridazin-3-yl)-acetamide] | – | – | 90.8 | 100.0 | 91.7 | 63.9 | 3.1 | – | –
10 | Cc1ccc(-c2nc3ccc(C)nn3c2CC(=O)Nc2ccccc2)cc1 [Example 86, 2-(6-Methyl-2-p-tolyl-imidazo[1,2-b]pyridazin-3-yl)-N-phenyl-acetamide] | – | – | 92.6 | 99.5 | 75.9 | 80.9 | 23.0 | – | –
11 | Cc1ccc(-c2nc3ccc(C)nn3c2CC(=O)Nc2cc(C)on2)cc1 [Example 95, N-(5-Methyl-isoxazol-3-yl)-2-(6-methyl-2-p-tolyl-imidazo[1,2-b]pyridazin-3-yl)-acetamide] | – | – | – | – | – | – | – | 0.0171 | –
12 | Cc1ccc(-c2nc3ccc(C)nn3c2CC(=O)Nc2cc(C)no2)cc1 [Example 97, N-(3-Methyl-isoxazol-5-yl)-2-(6-methyl-2-p-tolyl-imidazo[1,2-b]pyridazin-3-yl)-acetamide] | – | – | – | – | – | – | – | 0.0146 | –
13 | Cc1ccc(-c2nc3ccc(C)cn3c2CC(=O)N(C)C)cc1 [zolpidem, N,N,6-trimethyl-2-p-tolylimidazo[1,2-a]pyridine-3-acetamide, reference compound] | – | 18.3 | 91.7 | 99.4 | 73.6 | 74.1 | 19.9 | – | 80
